Measured values: US20040077674A1, “Mappicine analogs, intermediates in the synthesis of mappicine analogs and methods of synthesis of mappicine analogs” (priority 2002, published 2004)

Target: T1, RNase H activity of HIV reverse transcriptase (Human immunodeficiency virus type 1 group M subtype B, UniProt P03366)
T1 construct: 2.5 nM of the p51/p66 RT heterodimer in the assay; made in house
Experiment: Fluorescence (FRET)-based RNase H assay of HIV reverse transcriptase
Format: biochemical, HIV-1
Conditions: 20 μM inhibitor concentration
Procedure: Recently, a fluorescence-based assay to perform screens in search of HIV RNase H inhibitors has been developed. The assay, which is carried out in 96-well microplates and is adaptable to robotics, is the first high-throughput screen for RNase H and is described in further detail in the Experimental section. HIV-1 RT and human RNase H were cloned, and thus comparative analysis of inhibitor action could be conducted simultaneously.
The assay for RNase H activity of HIV reverse transcriptase was the fluorescence-based assay described in detail in the Experimental section and discussed in U.S. Provisional Patent Application Serial No. 60/318,359. Assays were carried out in the absence and in the presence of mappicine analogs (10 μM or 20 μM final concentration). The results are reported as % residual activity, which is the RNase H activity of the enzyme in the presence of the mappicine analog divided by the RNase H activity of the enzyme in the absence of the mappicine analog, multiplied by 100. Alternatively, the results are reported as % inhibition, which is calculated as the ratio of the RNase H activity of the enzyme in the presence of the mappicine analog to the enzyme activity in the absence of the mappicine analog, multiplied by 100, and then subtracting this number from 100.
Assay for Ribonuclease H Activity Based on Fluorescence Resonance Energy Transfer (FRET)
Preparation of the Fluorophore-RNA/Quencher-DNA Hybrid Duplex Substrate.
The RNA/DNA hybrid duplex substrate for use in the assay comprises an RNA oligonucleotide of sequence 5′-GAU CUG AGC CUG GGA GCU-3′, modified at the 3′-end with Aminolink-2 and derivatized with fluorescein isothiocyanate, to provide a modified RNA oligonucleotide of the sequence 5′-GAU CUG AGC CUG GGA GCU-fluorescein-3′, annealed to a complementary DNA oligonucleotide of the sequence 5′-AGC TCC CAG GCT CAG ATC-3′ modified at the 5′-end with Aminolink-2 and derivatized with the FRET acceptor DABCYL succinimidyl ester, to provide a modified DNA oligonucleotide of the sequence 5′-DABCYL-AGC TCC CAG GCT CAG ATC-3′.
To prepare the 3′-fluorescein-RNA/5′-DABCYL-DNA hybrid duplex substrate, a known amount of 3′-fluorescein-RNA was dissolved in 20 mM Tris buffer (pH 8.0, 37° C.) to provide a final concentration of 5 μM. Two equivalents of the 5′-DABCYL-DNA oligonucleotide were added, and the mixture was heated to 90° C. for 5 min and cooled slowly to room temperature to allow duplex formation. The positioning of the fluorescein donor at the 3′-end of the RNA oligonucleotide and the DABCYL acceptor at the 5′-end of the DNA oligonucleotide provides a very close proximity of the donor and acceptor that results in a very intense quenching of the fluorescein emission in the intact RNA/DNA hybrid duplex substrate due to the spectral overlap of the fluorescence emission of fluorescein with the absorption spectrum of DABCYL. In addition, DABCYL is non-fluorescent, and thus cannot contribute any light emission. Both of these factors result in a very low background and provide a high signal-to-noise in the assay measurements. The ratio of the donor fluorescence in the absence and in the presence of its quencher is approximately fifteen-fold.
Microplate Assay Protocol for the Measurement of RNase H Activity Using the RNA/IDNA Hybrid Duplex Substrate.
Reaction assay mixtures contained 5 μl of a stock solution of 2.5 μM RNA/DNA hybrid duplex substrate added to 85 μl of assay buffer (50 mM Tris, pH 8.0, 37° C., containing 60 mM KCl and 2.5 mM MgCl2), prepared in the wells of a 96-well fluorescence microtiter plate, and warmed to 37° C. using the temperature control of the SpectraMax Gemini XS microplate spectrofluorometer (Molecular Devices). Reactions were started by the addition of 5 μl of a solution of recombinant HIV-1 reverse transcriptase (usually providing a final concentration of 2.5 nM of the p51/p66 RT heterodimer in the assay), and mixing using the automatic mixing function of the microplate spectrofluorometer. […]

Compound | % inhibition of RNase H at 20 μM [%] | inhibition at 20 µM [%]
CCC(C)C(O)c1cc2n(c(=O)c1C)Cc1c-2nc2ccc(C(F)(F)F)cc2c1-c1ccccc1 (stereo not drawn) [Compound 4.8.4] | 74 | 
Cc1ccc2nc3c(c(-c4ccccc4)c2c1)Cn1c-3cc(C(O)CCC2CCCCC2)c(C)c1=O (stereo not drawn) [Compound 7.8.9] | 61 | 
CCCc1c2c(nc3c(F)cccc13)-c1cc(C(O)CCC3CCCCC3)c(C)c(=O)n1C2 (stereo not drawn) [Compound 7.5.8] | 82 | 
CCCCCc1c2c(nc3ccccc13)-c1cc(C(O)C3CCCCC3)c(C)c(=O)n1C2 (stereo not drawn) [Compound 6.7.1] | 71 | 
Cc1ccc2nc3c(c(-c4ccccc4)c2c1)Cn1c-3cc(C(O)C(C)C)c(C)c1=O (stereo not drawn) [Compound 5.8.9] | 69 | 
CCC(C)C(O)c1cc2n(c(=O)c1C)Cc1cc3cc(OC(F)(F)F)ccc3nc1-2 (stereo not drawn) [Compound 4.1.7] | 55 | 
CCCCCc1c2c(nc3ccc(OC)cc13)-c1cc(C(O)C3CCCCC3)c(C)c(=O)n1C2 (stereo not drawn) [Compound 6.7.3] | 65 | 
CCCCCc1c2c(nc3ccc(OC)cc13)-c1cc(C(O)C(C)CC)c(C)c(=O)n1C2 (stereo not drawn) [Compound 4.7.3] | 60 | 
CCc1c2c(nc3ccc(C(F)(F)F)cc13)-c1cc(C(O)C(C)C)c(C)c(=O)n1C2 (stereo not drawn) [Compound 5.4.4, 1 2-Ethyl-7-(1-hydroxy-2-methylpropyl)-8-methyl-2-trifluoromethyl-11H-indolizino[1,2-b]quinolin-9-one] |  | 87
Cc1c(C(C)O)cc2n(c1=O)Cc1c-2nc2ccc(OC(F)(F)F)cc2c1-c1ccccc1 (stereo not drawn) [Compound 1.8.7, 7-(1-Hydroxyethyl)-8-methyl-12-phenyl-2-trifluoromethoxy-11H-indolizino[1,2-b]quinolin-9-one] |  | 80
CCc1c2c(nc3ccc(OC)cc13)-c1cc(C(O)C3CCCCC3)c(C)c(=O)n1C2 (stereo not drawn) [Compound 6.4.3] | 60 | 
CCc1c2c(nc3ccc(C)cc13)-c1cc(C(O)C(C)CC)c(C)c(=O)n1C2 (stereo not drawn) [Compound 4.4.9] | 60 | 
CCCC(O)c1cc2n(c(=O)c1C)Cc1c-2nc2ccccc2c1-c1ccccc1 (stereo not drawn) [Compound 2.8.1, 7-(1-Hydroxybutyl)-8-methyl-12-phenyl-11H-indolizino [1,2-b]quinolin-9-one] |  | 83
CCc1c2c(nc3c(F)cccc13)-c1cc(C(O)CCC3CCCCC3)c(C)c(=O)n1C2 (stereo not drawn) [Compound 7.4.8] | 95 | 
CCCCc1c2c(nc3ccc(OC)cc13)-c1cc(C(O)CC)c(C)c(=O)n1C2 (stereo not drawn) [Compound 3.6.3] | 66 | 
CCCCc1c2c(nc3ccc(OC(F)(F)F)cc13)-c1cc(C(C)O)c(C)c(=O)n1C2 (stereo not drawn) [Compound 1.6.7, 12-Butyl-7-(1-hydroxyethyl)-8-methyl-2-trifluoromethoxy-11H-indolizino[1,2-b]quinolin-9-one] |  | 75
Cc1ccc2nc3c(c(-c4ccccc4)c2c1)Cn1c-3cc(C(C)O)c(C)c1=O (stereo not drawn) [Compound 1.8.9, 7-(1-Hydroxyethyl)-2,8-dimethyl-1 2-phenyl-11H-indolizino[1,2-b]quinolin-9-one] |  | 75
CCC(C)C(O)c1cc2n(c(=O)c1C)Cc1c-2nc2ccccc2c1-c1ccccc1 (stereo not drawn) [Compound 4.8.1, 7-(1-Hydroxy-2-methylbutyl)-8-methyl-1 2-phenyl-11H-indolizino[1,2-b]quinolin-9-one] |  | 80
Cc1c(C(O)C2CCCCC2)cc2n(c1=O)Cc1c-2nc2ccc(OC(F)(F)F)cc2c1-c1ccccc1 (stereo not drawn) [Compound 6.8.7, 7-(Cyclohexylhydroxymethyl)-8-methyl-1 2-phenyl-2-trifluoromethoxy-11H-indolizino[1,2-b]quinolin-9-one] |  | 87
CCCCc1c2c(nc3c1cn1c(=O)c(C)c(C(O)C(C)C)cc31)=CC=C(OC)C2 (stereo not drawn) [Compound 5.6.3, 12-Butyl-7-(1-hydroxy-2-methylpropyl)-2-methoxy-8-methyl-1H-indolizino[1,2-b]quinolin-9-one] |  | 90

Compound | % inhibition of RNase H at 20 μM [%] | inhibition at 20 µM [%]
Cc1c(C(O)CCC2CCCCC2)cc2n(c1=O)Cc1c-2nc2ccc(Cl)cc2c1-c1ccccc1 (stereo not drawn) [Compound 7.8.6] | 90 | 
CCC(C)C(O)c1cc2n(c(=O)c1C)Cc1c-2nc2ccc(C)cc2c1-c1ccccc1 (stereo not drawn) [Compound 4.8.9] | 55 | 
CCCCCc1c2c(nc3ccc(F)cc13)-c1cc(C(O)C3CCCCC3)c(C)c(=O)n1C2 (stereo not drawn) [Compound 6.7.2, 7-(Cyclohexylhydroxymethyl)-2-fluoro-8-methyl-12-pentyl-11H-indolizino[1,2-b]quinolin-9-one] |  | 76
CCc1ccc2nc3c(c(-c4ccccc4)c2c1)Cn1c-3cc(C(O)CCC2CCCCC2)c(C)c1=O (stereo not drawn) [Compound 7.8.5] | 65 | 
Cc1c(C(O)C2CCCCC2)cc2n(c1=O)Cc1c-2nc2ccc(C(F)(F)F)cc2c1-c1ccccc1 (stereo not drawn) [Compound 6.8.4, 7-(Cyclohexylhydroxymethyl)-8-methyl-12-phenyl-2-trifluoromethyl-11H-indolizino[1,2-b]quinolin-9-one] |  | 81
CCc1c2c(nc3ccc(F)cc13)-c1cc(C(O)C3CCCCC3)c(C)c(=O)n1C2 (stereo not drawn) [Compound 6.4.2] | 75 | 
Cc1ccc2nc3c(cc2c1)Cn1c-3cc(C(O)C2CCCCC2)c(C)c1=O (stereo not drawn) [Compound 6.1.9] | 65 | 
CCCCCc1c2c(nc3ccc(C)cc13)-c1cc(C(O)CC)c(C)c(=O)n1C2 (stereo not drawn) [Compound 3.7.9, 7-(1-Hydroxypropyl)-2,8-dimethyl-1 2-pentyl-11H-indolizino[1,2-b]quinolin-9-one] |  | 75
CCCCCc1c2c(nc3ccc(C(F)(F)F)cc13)-c1cc(C(O)CCC3CCCCC3)c(C)c(=O)n1C2 (stereo not drawn) [Compound 7.7.4] | 75 | 
CCCCCc1c2c(nc3ccc(CC)cc13)-c1cc(C(O)C(C)CC)c(C)c(=O)n1C2 (stereo not drawn) [Compound 4.7.5, 2-Ethyl-7-(1-hydroxy-2-methylbutyl)-8-methyl-1 2-pentyl-11H-indolizino[1,2-b]quinolin-9-one] |  | 100
CCc1c2c(nc3ccccc13)-c1cc(C(O)C3CCCCC3)c(C)c(=O)n1C2 (stereo not drawn) [Compound 6.4.1] | 65 | 
CCCCc1c2c(nc3ccc(C(F)(F)F)cc13)-c1cc(C(O)CC)c(C)c(=O)n1C2 (stereo not drawn) [Compound 3.6.4] | 62 | 
CCCC(O)c1cc2n(c(=O)c1C)Cc1c-2nc2ccc(C)cc2c1-c1ccccc1 (stereo not drawn) [Compound 2.8.9, 7-(1-Hydroxybutyl)-2,8-dimethyl-1 2-phenyl-11H-indolizino[1,2-b]quinolin-9-one] |  | 78
CCCCCc1c2c(nc3ccc(C(F)(F)F)cc13)-c1cc(C(O)C(C)CC)c(C)c(=O)n1C2 (stereo not drawn) [Compound 4.7.4] | 55 | 
CCCCCc1c2c(nc3ccc(C(F)(F)F)cc13)-c1cc(C(O)C3CCCCC3)c(C)c(=O)n1C2 (stereo not drawn) [Compound 6.7.4] | 70 | 
CCCCCc1c2c(nc3ccc(OC)cc13)-c1cc(C(O)CCC)c(C)c(=O)n1C2 (stereo not drawn) [Compound 2.7.3] | 60 | 
CCCCc1c2c(nc3ccc(OC)cc13)-c1cc(C(O)CCC)c(C)c(=O)n1C2 (stereo not drawn) [Compound 2.6.3] | 67 | 
CCC(O)c1cc2n(c(=O)c1C)Cc1c-2nc2ccccc2c1-c1ccccc1 (stereo not drawn) [Compound 3.8.1] | 74 | 
CCCc1c2c(nc3c(F)cccc13)-c1cc(C(O)C(C)CC)c(C)c(=O)n1C2 (stereo not drawn) [Compound 4.5.8] | 55 | 
